# “And” between values parts separate entries of the source, which are not always exact repeats. Identical values can stand only once. Like-named read-outs stand apart in the source and are kept apart here. Marks after values point to notes of the source that are not given here.
# What was measured:
# [1] = phase I study: adverse events (NCI-CTCAE v3.0)
# [2] = target: Aurora B kinase; details: cell-based assays; cited from earlier work
# [3] = cited from earlier work
# [4] = tested on: xenograft MM model; details: cited from earlier work
# [5] = phase I study: plasma pharmacokinetics; assay type: in vivo, patients; details: for AUC(0-t) / Tmax / half-life: human, plasma, oral; for AUC(0-t): read-out: Geometric mean AUC0–tlast (CV, %); for Tmax: read-out: Median Tmax (range)
# Text: PK parameters included: area under the plasma concentration versus time curve, maximum plasma concentration, time to maximum plasma concentration (Tmax), terminal half-life (t1/2), accumulation ratio (Rac), and peak/trough ratio. Secondary endpoints were response rate, duration of response, and evaluation of banked tumor tissue samples for AAK protein expression and gene amplification.
# Plasma samples were collected in cycle 1 at various time points on the first day (day 1) and last day (day 7, ECT 7-day schedule; day 14, PIC or ECT 14-day schedules; day 21, PIC 21-day schedule) of treatment. PK parameters were calculated by non-compartmental analysis using WinNonlin software (v5.2.1, Pharsight Corporation, Cary, NC).
# [6] = in vivo
# [7] = twice-daily (BID), 7-day schedule in 21-day cycles, solid tumors; cited from earlier work
# [8] = phase I study: DLTs and MTD
# Description: Dosing schedules are summarized in Supplementary Fig. S1 (online only). The PIC formulation starting dose was 25 or 35 mg/day. […] For the ECT formulation, the starting dose was 40 mg/day QD for 14 days followed by 14 days’ rest in 28-day cycles.
# If 2 of the first 3–6 patients experienced DLTs at a given dose level, dose escalation was delayed while the available safety/clinical data were assessed and a decision made on how to proceed with a modified dose or schedule. […] The use of myeloid growth factors (G-CSF or GM-CSF) or erythropoiesis-stimulating agents was permitted after the DLT evaluation period was completed (cycle 1) and on a case-by-case basis after cycle 2. Treatment continued for up to 12 months, or until disease progression or unacceptable toxicity, with the possibility of treatment extension beyond 12 months if clinical benefit was evident and toxicities were manageable.
# [9] = tested on: PTCL cell lines; details: cited from earlier work
# [10] = tested on: mantle cell lymphoma; details: cited from earlier work
# [11] = tested on: advanced heme-lymphatic malignancies (MM, NHL, CLL); assay: phase I study: antitumor response; assay type: in vivo, patients
# Description: Response was evaluated according to the International Working Group criteria for patients with lymphoma, the International Myeloma Working Group uniform response criteria for patients with MM [28], and the International Workshop on CLL guidelines.
# [12] = target: AAK; details: read-out: inhibition constant (Ki); cited from earlier work
# [13] = tested on: AAK; details: cell-based assays; cited from earlier work
# [14] = tested on: multiple myeloma (MM) cells; details: in vitro; cited from earlier work
# [15] = tested on: aggressive B- and T-cell NHL; details: 50 mg BID, cited from earlier work
# [16] = 30 mg, ECT 30 mg BID, 7-day schedule, Day 1, first dose, N 3
# [17] = 30 mg, ECT 30 mg BID, 7-day schedule, Day 7, N 3
# [18] = 40 mg, ECT 40 mg BID, 7-day schedule, Day 1, first dose, N 9
# [19] = 40 mg, ECT 40 mg BID, 7-day schedule, Day 7, N 8
# [20] = 50 mg, ECT 50 mg BID, 7-day schedule, Day 7, N 7
smiles,measurement,setting,value
"COc1cc(Nc2ncc3c(n2)-c2ccc(Cl)cc2C(c2c(F)cccc2OC)=NC3)ccc1C(=O)O [MLN8237, alisertib]",patients reporting drug-related AEs,[1]; N = 58,90%
same,"grade 3 or higher febrile neutropenia, frequency",[1]; all cohorts,9%
same,"grade ≥3 drug-related anemia, patients","[1]; all cohorts, N = 58",19%
same,"grade ≥3 drug-related leukopenia, patients","[1]; all cohorts, N = 58",19%
same,"grade ≥3 drug-related neutropenia, patients","[1]; all cohorts, N = 58",45%
same,"grade ≥3 drug-related thrombocytopenia, patients","[1]; all cohorts, N = 58",28%
same,"Alopecia, drug-related AE, All grades",[1]; all doses and schedules,15 (26) n (%)
same,"Anemia, drug-related AE, All grades",[1]; all doses and schedules,19 (33) n (%)
same,"Anemia, drug-related AE, Grade ≥3",[1]; all doses and schedules,11 (19) n (%)
same,"Decreased WBC count, drug-related AE, All grades",[1]; all doses and schedules,5 (9) n (%)
same,"Decreased WBC count, drug-related AE, Grade ≥3",[1]; all doses and schedules,3 (5) n (%)
same,"Diarrhea, drug-related AE, All grades",[1]; all doses and schedules,20 (34) n (%)
same,"Diarrhea, drug-related AE, Grade ≥3",[1]; all doses and schedules,1 (2) n (%)
same,"Fatigue, drug-related AE, All grades",[1]; all doses and schedules,15 (26) n (%)
same,"Fatigue, drug-related AE, Grade ≥3",[1]; all doses and schedules,2 (3) n (%)
same,"Febrile neutropenia, drug-related AE, All grades",[1]; all doses and schedules,5 (9) n (%)
same,"Febrile neutropenia, drug-related AE, Grade ≥3",[1]; all doses and schedules,5 (9) n (%)
same,"Leukopenia, drug-related AE, All grades",[1]; all doses and schedules,13 (22) n (%)
same,"Leukopenia, drug-related AE, Grade ≥3",[1]; all doses and schedules,11 (19) n (%)
same,"Lymphopenia, drug-related AE, All grades",[1]; all doses and schedules,8 (14) n (%)
same,"Lymphopenia, drug-related AE, Grade ≥3",[1]; all doses and schedules,4 (7) n (%)
same,"Nausea, drug-related AE, All grades",[1]; all doses and schedules,12 (21) n (%)
same,"Neutropenia, drug-related AE, All grades",[1]; all doses and schedules,33 (57) n (%)
same,"Neutropenia, drug-related AE, Grade ≥3",[1]; all doses and schedules,26 (45) n (%)
same,"Somnolence, drug-related AE, All grades",[1]; all doses and schedules,6 (10) n (%)
same,"Stomatitis, drug-related AE, All grades",[1]; all doses and schedules,7 (12) n (%)
same,"Stomatitis, drug-related AE, Grade ≥3",[1]; all doses and schedules,1 (2) n (%)
same,"Thrombocytopenia, drug-related AE, All grades",[1]; all doses and schedules,24 (41) n (%)
same,"Thrombocytopenia, drug-related AE, Grade ≥3",[1]; all doses and schedules,16 (28) n (%)
same,"Vomiting, drug-related AE, All grades",[1]; all doses and schedules,8 (14) n (%)
same,On-study deaths,[1]; during treatment or within 30 days of last dose,6 (10 %) n (%) and 6 (10) n (%)
same,discontinued treatment due to drug-related bullous dermatitis,[1]; in vivo,1 n
same,discontinued treatment due to drug-related confusion,[1]; in vivo,1 n
same,discontinued treatment due to drug-related thrombocytopenia,[1]; in vivo,4 n
same,tolerability,[1]; patients with advanced heme-lymphatic malignancies,generally well tolerated
same,Any AE resulting in discontinuation,[1]; safety population,9 (16 %) n (%) and 9 (16) n (%)
same,Any drug-related AE,[1]; safety population,52 (90) n (%)
same,Any drug-related grade ≥3 AE,[1]; safety population,35 (60 %) n (%) and 35 (60) n (%)
same,Any treatment-emergent AE,[1]; safety population,58 (100) n (%)
same,Any treatment-emergent grade ≥3 AE,[1]; safety population,46 (79) n (%)
same,Any treatment-emergent serious AE,[1]; safety population,28 (48) n (%)
same,aqueous solubility,[3],low
same,overall survival,[4]; P = 0.0044,significantly increased
same,tumor burden,[4]; P = 0.007,significantly reduced
same,"Geometric mean CLss/F (CV, %)","[5]; ECT 30 mg BID, 7-day schedule, Day 7, N 3",3.7 (0.7) L/h
same,"Geometric mean CLss/F (CV, %)","[5]; ECT 40 mg BID, 7-day schedule, Day 7, n=7",4.4 (1.9) ^† L/h
same,"Geometric mean CLss/F (CV, %)","[5]; ECT 50 mg BID, 7-day schedule, Day 7, N 7",6.7 (5.6) L/h
same,Mean CLss/F,"[5]; all formulations, CV 69 %, n = 42",4.8 L/h
same,AUC(0-t),[5]; [16],5.52 µM·h
same,Tmax,[5]; [16],2 h
same,AUC(0-t),[5]; [17],16 µM·h
same,Tmax,[5]; [17],2 h
same,half-life,"[5]; 30 mg, ECT 30 mg BID, 7-day schedule, Day 7, n=1, read-out: Mean t1/2 (sd) (converted)",13.3 h
same,AUC(0-t),[5]; [18],7.09 µM·h
same,Tmax,[5]; [18],2.2 h
same,AUC(0-t),[5]; [19],18.6 µM·h
same,Tmax,[5]; [19],2 h
same,half-life,"[5]; 40 mg, ECT 40 mg BID, 7-day schedule, Day 7, n=4, read-out: Mean t1/2 (sd) (converted)",19.9 h
same,Tmax,"[5]; 50 mg, ECT 50 mg BID, 7-day schedule, Day 1, first dose, N 10",2 h
same,AUC(0-t),"[5]; 50 mg, ECT 50 mg BID, 7-day schedule, Day 1, first dose, n=9",9.73 µM·h
same,AUC(0-t),[5]; [20],17.9 µM·h
same,Tmax,[5]; [20],2 h
same,half-life,"[5]; 50 mg, ECT 50 mg BID, 7-day schedule, Day 7, n=5, read-out: Mean t1/2 (sd) (converted)",18.4 h
same,half-life,"[5]; multiple-dose administration, PIC and ECT, read-out: overall mean steady-state t1/2 (terminal half-life) (converted)",~19 h
same,half-life,"[5]; multiple-dose administration, PIC and ECT, read-out: steady-state t1/2, range",10 to 43 h
same,on-study deaths considered treatment-related,[6],none
same,maximum tolerated dose (MTD),[7],50 mg
same,MTD,"[8]; ECT 7-day schedule, BID",50 mg
same,MTD,"[8]; PIC 14-day schedule, QD",45 mg
same,recommended phase II dose,"[8]; human, in vivo, 7 days",50 mg
same,effect on PTCL cell lines,[9],induces endo-reduplication and apoptosis
same,tumor growth,[10],inhibit tumor growth
same,patients achieving partial response (PR),[11]; 47 response-evaluable patients,13%
same,patients with partial response (PR),[11]; 47 response-evaluable patients,6 patients
same,patients discontinued due to progressive disease,[11]; N = 58,64%
same,Ki,[12],0.43 nM
same,effect on MM cells,[14],"mitotic spindle abnormalities, mitotic accumulation, and apoptosis"
same,CR,[15]; 48 treated patients,10%
same,PR,[15]; 48 treated patients,17%
same,overall response rate,[15]; 48 treated patients,27%
same,patients achieving SD,[15]; 48 treated patients,33%
same,patients with T-cell lymphoma who had a response,[15],4/8

# Source: PMC4045308 (Investigational New Drugs, 2013)
